Laboratory results reported in patent publication US6479530B2, “Imidazole derivatives having affinity for α2 receptors” (Orion Corporation, priority 1995, dated 2002).

Legend:
α2-adrenoceptors [1] = test: Binding assay, displacement of 1 nM 3H-RX821002 in rat neocortical membranes; conditions: ratio of affinities on rat neocortical α2- vs α1-adrenoceptors
Experimental: (§1) Affinities for α2-adrenoceptors and α1-adrenoceptors were estimated by determining the displacement of 1 nM ^3H-RX821002 (α2) or 0.1 nM ^3H-prazosin (α1) from α-adrenoceptors in rat neocortical membranes. For this purpose membranes were incubated with different concentrations of test compounds spanning a concentration range of five orders of magnitude. Nonspecific binding was defined with 10 μM phentolamine. Membranes were used at a protein concentration of 2 mg/ml in a total volume of 250 μl. The incubation buffer consisted of 50 mM TRIS-HCl, pH 7.7. After a 30 min incubation at 25° C. samples were filtered through glass fibre filter and filters were washed three times with 4 ml icecold wash buffer consisting of 10 mM TRIS-HCl, pH 7.7. Filters were then dried, impregnated with a scintillation cocktail and counted in a scintillation counter. Experimental data was analyzed using the commercial nonlinear least squares computer program LIGAND.
(§2) Each compound was tested in at least three independent experiments for its affinity on rat neocortical α2- or α1-adrenoceptors.

α2-adrenoceptors [2] = biological target: T1, α2-adrenoceptors; test: as above; conditions: rat neocortical membranes, 1 nM 3H-RX821002, 30 min at 25° C., at least three independent experiments
T1 construct: pKi α2; other: rat neocortical membranes, 1 nM 3H-RX821002, 30 min at 25° C., at least three independent experiments
Experimental: as §1, §2

α1-adrenoceptors = test: Binding assay, displacement of 0.1 nM 3H-prazosin in rat neocortical membranes; conditions: 30 min at 25° C., at least three independent experiments
Experimental: as §1, §2

Cc1cccc2c1CCC2c1c[nH]cn1.Cl (stereo not drawn) [Compound 1, 4-(4-Methylindan-1-yl)-1H-imidazole hydrochloride]
alpha2 vs alpha1 selectivity (α2-adrenoceptors [1]): 14
pKi α2 (α2-adrenoceptors [2]): 8.44
pKi α1 (α1-adrenoceptors): 7.31

Cl.Oc1ccc2c(c1)C(Cc1c[nH]cn1)CC2 (stereo not drawn) [Compound 2, 3-(1H-Imidazol-4-ylmethyl)-indan-5-ol hydrochloride]
alpha2 vs alpha1 selectivity (α2-adrenoceptors [1]): 126
pKi α2 (α2-adrenoceptors [2]): 8.70
pKi α1 (α1-adrenoceptors): 6.61

CC(c1c[nH]cn1)C1CCc2ccccc21.Cl (stereo not drawn) [Compound 3, 4-[1-(Indan-1-yl)-ethyl]-1H-imidazole hydrochloride]
alpha2 vs alpha1 selectivity (α2-adrenoceptors [1]): 142
pKi α2 (α2-adrenoceptors [2]): 8.35
pKi α1 (α1-adrenoceptors): 6.21

Cl.Oc1ccc2c(c1)C(Cc1c[nH]cn1)CCC2 (stereo not drawn) [Compound 4, 8-(1H-Imidazol-4-ylmethyl)-5,6,7,8-tetrahydronaphthalen-2-ol hydrochloride]
alpha2 vs alpha1 selectivity (α2-adrenoceptors [1]): 3
pKi α2 (α2-adrenoceptors [2]): 7.39
pKi α1 (α1-adrenoceptors): 6.85

Cc1cccc([C@H](C)c2cnc[nH]2)c1C [Compound 5, dexmedetomidine, reference compound]
alpha2 vs alpha1 selectivity (α2-adrenoceptors [1]): 90
pKi α2 (α2-adrenoceptors [2]): 8.42
pKi α1 (α1-adrenoceptors): 6.48
